# Assay results published in patent US9453028B2, “Protein kinase C inhibitors and uses thereof” (Rigel Pharmaceuticals, Inc., priority 2009, dated 2016).
# What was measured:
# PKC-alpha = molecular target: T1, PKC-alpha (Homo sapiens, UniProt P17252); experiment: Protein Kinase C assay (fluorescence polarization), PKC-alpha; type: biochemical
# T1 construct: purchased Oxford Biomedical Research
# Procedure: (§1) The inhibition of PKC activity was measured by monitoring the production of phosphorylated peptide by fluorescence polarization at different concentrations of the inhibitor. Reactions were carried out in 96-well plate format with a total volume of 20 μL containing 20 mM HEPES, pH 7.4, 5 mM MgCl2, 0.2 mM CaCl2, 1 mM DTT, 0.02% Brij-35, 0.1 mg/mL phosphatidylserine, 0.02 mg/mL dioleoyl-sn-glycerol and 5 μM each of ATP and the peptide substrate. Compounds were first diluted serially in DMSO and then transferred to a solution containing the above concentrations of HEPES, MgCl2, CaCl2, DTT, and Brij-35 to yield 5× compound solutions in 2% DMSO, which was then added to the reaction solution. Reactions were initiated by the addition of PKC at a typical concentration as described in the table below, and then allowed to incubate at room temperature for 20 minutes. At the end of this time, a combination of quench (EDTA) and detection (peptide tracer and antibody) reagents was added using the protocol of Invitrogen P2748 (Carlsbad, Calif.), a Protein Kinase C Fluorescence polarization Assay Kit. After a 30 minute period of incubation, the amount of phosphorylated peptide generated was measured by fluorescence polarization (Ex=485 nm, Em=535 nm) using a Tecan Polarian instrument (Switzerland).
# Human recombinant PKC α is obtained from Oxford Biomedical Research and is used under the assay conditions as described under Section A.1 above.
# (§2) Several subject compounds were tested according to procedures in the “Characterization of Functional Properties” section. PKC kinase activity was measured using the procedure Section A.1 (Protein Kinase C assay) with the appropriate isoform. The whole cell assay was run according to the procedure in Section A.2 (IL-2 ELISA, Human primary T cell, anti-CD3+CD28+ Assays). […] Blank entries indicate that the IC50 was not determined.
# PKC-epsilon = molecular target: T2, PKC-epsilon (Homo sapiens, UniProt Q02156); experiment: Protein Kinase C assay (fluorescence polarization), PKC-epsilon; type: biochemical
# T2 construct: purchased Upstate Biotechnologies, Temecula, CA 14-518
# T2 sequence (Q02156 1-737): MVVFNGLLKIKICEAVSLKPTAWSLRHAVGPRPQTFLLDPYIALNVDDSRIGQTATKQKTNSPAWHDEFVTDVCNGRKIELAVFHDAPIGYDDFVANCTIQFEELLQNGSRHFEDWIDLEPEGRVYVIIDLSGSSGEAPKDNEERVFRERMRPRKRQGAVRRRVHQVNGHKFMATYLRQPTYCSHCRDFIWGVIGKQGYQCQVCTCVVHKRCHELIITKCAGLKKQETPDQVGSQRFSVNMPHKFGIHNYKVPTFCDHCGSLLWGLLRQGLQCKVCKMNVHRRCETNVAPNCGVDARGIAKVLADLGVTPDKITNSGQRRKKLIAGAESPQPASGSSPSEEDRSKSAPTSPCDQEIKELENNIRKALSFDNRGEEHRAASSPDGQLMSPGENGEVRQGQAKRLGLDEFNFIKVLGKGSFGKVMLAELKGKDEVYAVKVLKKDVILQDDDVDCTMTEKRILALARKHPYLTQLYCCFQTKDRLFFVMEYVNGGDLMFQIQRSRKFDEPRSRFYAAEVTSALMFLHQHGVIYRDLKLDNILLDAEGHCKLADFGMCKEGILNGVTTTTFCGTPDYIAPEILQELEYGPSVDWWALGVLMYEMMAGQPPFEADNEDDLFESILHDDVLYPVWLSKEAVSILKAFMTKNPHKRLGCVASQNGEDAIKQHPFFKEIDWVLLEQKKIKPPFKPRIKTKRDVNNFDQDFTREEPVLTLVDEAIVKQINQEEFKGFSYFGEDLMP
# Procedure: as §1
# Human recombinant PKC […] is obtained from Oxford Biomedical Research and is used under the assay conditions as described under Section A.1 above.
# as §2
# PKC-theta = molecular target: T3, PKC-theta (Homo sapiens, UniProt Q04759); experiment: Protein Kinase C assay (fluorescence polarization), PKC-theta; type: biochemical
# T3 construct: purchased Upstate Biotechnologies, Temecula, CA 14-444
# T3 sequence (Q04759 whole entry): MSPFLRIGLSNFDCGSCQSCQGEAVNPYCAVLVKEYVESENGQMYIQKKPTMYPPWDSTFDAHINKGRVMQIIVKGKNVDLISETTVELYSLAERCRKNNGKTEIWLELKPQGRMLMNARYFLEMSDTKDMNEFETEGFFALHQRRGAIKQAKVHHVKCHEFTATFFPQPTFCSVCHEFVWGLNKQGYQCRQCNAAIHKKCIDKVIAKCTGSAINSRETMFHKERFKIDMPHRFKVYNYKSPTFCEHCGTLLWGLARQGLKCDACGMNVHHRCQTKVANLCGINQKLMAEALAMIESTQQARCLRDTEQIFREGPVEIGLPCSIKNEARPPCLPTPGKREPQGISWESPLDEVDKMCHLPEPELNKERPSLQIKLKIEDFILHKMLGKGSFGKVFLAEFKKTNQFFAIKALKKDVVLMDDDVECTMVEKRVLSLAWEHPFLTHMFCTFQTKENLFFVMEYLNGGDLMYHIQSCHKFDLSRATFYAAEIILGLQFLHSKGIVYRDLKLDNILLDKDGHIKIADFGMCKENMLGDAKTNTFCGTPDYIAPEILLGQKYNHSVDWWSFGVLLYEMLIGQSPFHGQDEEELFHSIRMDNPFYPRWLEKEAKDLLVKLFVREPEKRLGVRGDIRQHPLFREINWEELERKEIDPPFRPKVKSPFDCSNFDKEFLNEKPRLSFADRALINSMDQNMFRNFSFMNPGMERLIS
# Procedure: as §1
# Human recombinant PKC θ is used under the assay conditions as described above.
# as §2
# PKC-beta = molecular target: T4, PKC-beta (Homo sapiens, UniProt P05771); experiment: Protein Kinase C assay (fluorescence polarization), PKC-beta; type: biochemical
# T4 construct: purchased Oxford Biomedical Research
# T4 sequence (P05771 whole entry): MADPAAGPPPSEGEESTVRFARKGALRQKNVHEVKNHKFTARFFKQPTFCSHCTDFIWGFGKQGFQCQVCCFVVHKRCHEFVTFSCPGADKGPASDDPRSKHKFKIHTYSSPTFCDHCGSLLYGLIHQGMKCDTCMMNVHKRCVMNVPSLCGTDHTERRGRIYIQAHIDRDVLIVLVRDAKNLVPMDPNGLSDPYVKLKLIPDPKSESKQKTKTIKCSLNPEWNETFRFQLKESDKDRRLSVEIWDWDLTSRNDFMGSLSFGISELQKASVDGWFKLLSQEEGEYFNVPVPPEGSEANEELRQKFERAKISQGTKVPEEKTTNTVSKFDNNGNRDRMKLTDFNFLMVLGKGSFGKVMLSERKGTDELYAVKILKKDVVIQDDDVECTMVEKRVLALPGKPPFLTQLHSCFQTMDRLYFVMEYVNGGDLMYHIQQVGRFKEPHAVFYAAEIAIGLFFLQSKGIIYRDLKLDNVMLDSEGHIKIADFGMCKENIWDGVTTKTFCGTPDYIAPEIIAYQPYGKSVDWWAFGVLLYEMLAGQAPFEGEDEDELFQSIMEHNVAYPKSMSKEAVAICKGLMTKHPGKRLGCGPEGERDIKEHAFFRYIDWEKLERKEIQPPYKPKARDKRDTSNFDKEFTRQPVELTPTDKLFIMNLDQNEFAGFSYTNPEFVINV
# Procedure: as §1
# Human recombinant PKC β1 is obtained from Oxford Biomedical Research and is used under the assay conditions as described under Section A.1 above.
# as §2
# Human primary T cell = experiment: IL-2 ELISA, human primary T cell, anti-CD3+CD28+ whole cell assay; type: cell-based; settings: IL-2 by ELISA, human primary T cells stimulated with anti-CD3+CD28
# Procedure: 2. IL-2 ELISA, Human Primary T Cell, Anti-CD3+CD28+ Assays
# Human primary T cells were prepared as follows. Whole blood was obtained from a healthy volunteer, mixed 1:1 with PBS, layered on to Ficoll Hypaque (Amersham Pharmacia Biotech, Piscataway, N.J., Catalog #17-1440-03) in 2:1 blood/PBS:ficoll ratio and centrifuged for 30 minutes at 4° C. at 1750 rpm. The cells at the serum:ficoll interface were recovered and washed twice with 5 volumes of PBS. These freshly isolated human peripheral blood mononuclear cells were cultured in Yssel's medium containing 40 U/mL IL2 in a flask pre-coated with 1 μg/mL αCD3 and 5 μg/mL αCD28 (Anti-Human CD3, BD Pharmingen Catalog #555336, Anti-Human CD28, Beckman Coulter Catalog #1M1376). The cells were stimulated for 3-4 days, then transferred to a fresh flask and maintained in RPMI (RPMI-1640 with L-Glutamine; Mediatech, Inc., Herndon Va., cat. #10-040-CM) with 10% FBS and 40 U/mL IL-2. The primary T-cells were then washed twice with PBS to remove the IL-2.
# Human primary T cells (100,000 cells per well) were pre-incubated with or without test compound in Yssel's medium for 1 hr at 37° C. Cells were then stimulated by transferring them to round-bottom 96-well plates pre-coated with 1 μg/ml αCD3 and 5 μg/ml αCD28. For counter assay, cells were instead stimulated by adding 8× stock solutions of PMA and ionomycin in Yssels (for final concentrations of 0.5 ng/ml PMA and 0.1 μM ionomycin, both from Calbiochem). Cells were incubated at 37° C. for 24 hours before 100 μL supernatants were harvested for quantification of IL-2 by ELISA using Human IL-2 Duoset ELISA Kit from R and D Systems, Cat. # DY202E.
# as §2
# PKC-delta = molecular target: T5, PKC-delta (Homo sapiens, UniProt Q05655); experiment: Protein Kinase C assay (fluorescence polarization), PKC-delta; type: biochemical
# T5 construct: purchased Oxford Biomedical Research
# T5 sequence (Q05655 whole entry): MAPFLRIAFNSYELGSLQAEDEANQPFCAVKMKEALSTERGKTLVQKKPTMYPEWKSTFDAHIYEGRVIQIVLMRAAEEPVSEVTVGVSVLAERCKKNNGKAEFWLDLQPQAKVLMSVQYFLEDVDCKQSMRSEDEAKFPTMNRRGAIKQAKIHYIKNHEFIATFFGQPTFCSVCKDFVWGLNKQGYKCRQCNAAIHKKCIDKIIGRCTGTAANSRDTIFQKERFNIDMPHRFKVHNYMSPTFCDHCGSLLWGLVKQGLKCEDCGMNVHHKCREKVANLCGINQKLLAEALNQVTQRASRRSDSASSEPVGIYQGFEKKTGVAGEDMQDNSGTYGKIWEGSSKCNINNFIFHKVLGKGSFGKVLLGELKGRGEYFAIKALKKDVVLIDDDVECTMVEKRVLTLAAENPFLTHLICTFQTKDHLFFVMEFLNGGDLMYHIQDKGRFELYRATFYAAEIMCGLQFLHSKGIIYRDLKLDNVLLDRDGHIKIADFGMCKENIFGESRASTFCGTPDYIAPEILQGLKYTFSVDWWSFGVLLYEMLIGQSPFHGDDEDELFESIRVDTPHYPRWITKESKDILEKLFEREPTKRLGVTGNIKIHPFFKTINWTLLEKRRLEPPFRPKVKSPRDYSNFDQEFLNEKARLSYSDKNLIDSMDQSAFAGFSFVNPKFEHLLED
# Procedure: as §1
# Human recombinant PKC δ is obtained from Oxford Biomedical Research and is used under the assay conditions as described under Section A.1 above.
# as §2
IC50 (PKC-alpha) [nM],IC50 (PKC-epsilon) [nM],IC50 (PKC-theta) [nM],IC50 (PKC-beta) [nM],IC50 (Human primary T cell; T-cell) [nM],IC50 (PKC-delta) [nM],IC50 (Human primary T cell) [nM],Compound
< 250,< 250,< 250,< 250,< 250,< 250,,"CN1C(C)(C)CC(CNc2nc(Nc3ccc4c(c3)-n3nnnc3CO4)ncc2F)C1(C)C (stereo not drawn) [Compound 2-2, N2-(4H-benzo[b]tetrazolo[1,5-d][1,4]oxazin-8-yl)-5-fluoro-N4-((1,2,2,5,5-pentamethylpyrrolidin-3-yl)methyl)pyrimidine-2,4-diamine]"
< 250,< 250,< 250,< 250,,< 250,< 250,"CC1C[C@@H](CNc2nc(Nc3ccc4c(c3)-n3nnnc3C(C)(C)O4)ncc2F)C(C)(C)N1 (stereo partly drawn) [Compound 2-7, N2-(4,4-dimethyl-4H-benzo[b]tetrazolo[1,5-d][1,4]oxazin-8-yl)-5-fluoro-N4-(((3S)-2,2,5-trimethylpyrrolidin-3-yl)methyl)pyrimidine-2,4-diamine]"
< 250,< 250,< 250,250 to 500,,< 250,250 to 500,"CC1C[C@H](CNc2nc(Nc3ccc4c(c3)-n3nnnc3C(C)(C)O4)ncc2F)C(C)(C)N1 (stereo partly drawn) [Compound 2-8, N2-(4,4-dimethyl-4H-benzo[b]tetrazolo[1,5-d][1,4]oxazin-8-yl)-5-fluoro-N4-(((3R)-2,2,5-trimethylpyrrolidin-3-yl)methyl)pyrimidine-2,4-diamine]"
